The values that follow come from patent US7009053B2, “Quinoline derivatives as caspase-3 inhibitor, preparation for producing the same and pharmaceutical composition comprising the same” (Yungjin Pharmaceuticals Co., Ltd., priority 2002, dated 2006).

Read-outs that look alike come from different tables or passages of the source.

Common to all, as to format: biochemical
The target of assay [1] is T1, human recombinant caspase-3 enzyme (Homo sapiens, UniProt P42574).
T1 construct: each cDNA encoding p12 and p17 subunits of caspase-3 was PCR-amplified respectively and subcloned into a pET3-a expression vector; made in house; host or cells: E. coli BL21 (DE3), pET3-a vector
T1 sequence (P42574 29-175 limits assumed): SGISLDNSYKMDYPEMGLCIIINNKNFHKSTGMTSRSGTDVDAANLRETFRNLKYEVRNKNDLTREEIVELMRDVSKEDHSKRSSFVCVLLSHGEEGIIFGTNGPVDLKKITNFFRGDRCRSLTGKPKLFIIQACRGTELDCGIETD
T1 sequence (P42574 176-277 limits assumed): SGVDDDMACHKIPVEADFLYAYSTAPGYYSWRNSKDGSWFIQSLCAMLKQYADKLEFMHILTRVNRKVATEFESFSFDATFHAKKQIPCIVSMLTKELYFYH
As to the kind of experiment: Enzyme assay of caspase-3 inhibition (fluorogenic Ac-DEVD-AFC substrate). To be noted: for inhibition at 20 µM: caspase-3 activity. The protocol:
The active form of human recombinant caspase-3 enzyme was prepared from Escherichia coli (E.coli) heterologous expression system as described previously (Rotonda J. et al., Nat Struct Biol 3(7): 617–25, 1996). Briefly, each cDNA encoding p12 and p17 subunits of caspase-3 was PCR-amplified respectively and subcloned into a pET3-a expression vector (Novagen), which was followed by transfection into E. coli strain BL21 (DE3). The bacterial cultures (0.5 liters for each transfectant) were grown at 37° C. until logarithmic phase of cell growth and isopropyl-1-thio-β-D-galactopyranoside (IPTC) (Pharmacia) was then added to a final concentration of 0.5 mM. After 3 hr of incubation, the bacteria were pelleted and lysed in a lysis buffer (20 mM Tris hydrochloride pH 8.0, 1 mM EDTA, 2 mM dithiothreitol (DTT), 100 mM NaCl, 200 ug/ml of lysozyme) through sonication. After centrifugation, the pellets from each transfectants were dissolved in 6 M urea and were mixed and rapidly diluted 50 fold in 100 mM HEPES/KOH (pH 7.5), 10% sucrose, 0.1% CHAPS, 0.5 M NaCl, 10 mM DTT. The concentration of protein was determined with the Bradford method (Bio-Rad), with bovine serum albumin as the standard. To verify whether expected size of proteins were obtained, the cell lysates from each cDNA transfectants were analyzed on 14% SDS PAGE and visualized with Coomassie blue staining.
200 ul of the following assay solution was contained in each well of 96-well plate: 20 mM HEPES/KOH (pH 7.5), 10% sucrose, 10 mM DTT, 0.2 mM EDTA, 0.1% CHAPS, 200 ng of enzymes, and 2.5 uM of the substrate. The fluorogenic substrate […]-Asp-Glu-Val-Asp-7-amino-4-trifluoromethylcoumarin (Ac-DEVD-AFC) was purchased from Sigma (St Louis, Mo.) and dissolved in DMSO as a 2.5 mM stock solution and kept at −20° C. before use.
After 1 hr incubation at 37° C., the release of AFC (7-amino-4-trifluoromethyl-coumarin) was monitored in a fluorometric plate reader (Victor 1420). The excitation and emission wavelengths were 400 nm and 510 nm, respectively. The inhibitory effects of compounds on enzyme activities were determined with 2, 20 or 200 uM concentrations of the test compound run in triplicate tubes, and isotherms from three assays were calculated by computerized nonlinear regression analysis (GraphPad Prism Program, San Diego, Calif.) to yield IC50 values.

The target of another assay is T2, Caspase-1 (Homo sapiens, UniProt P29466).
T2 construct: purchased BIOMOL Research Laboratories Inc; host or cells: E. coli
T2 sequence (P29466 120-297 limits assumed): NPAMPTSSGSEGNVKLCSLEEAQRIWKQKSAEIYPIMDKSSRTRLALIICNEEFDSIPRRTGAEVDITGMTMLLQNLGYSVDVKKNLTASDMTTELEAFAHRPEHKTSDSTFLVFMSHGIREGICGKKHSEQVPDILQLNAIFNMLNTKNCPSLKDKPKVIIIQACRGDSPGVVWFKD
T2 sequence (P29466 317-404 limits assumed): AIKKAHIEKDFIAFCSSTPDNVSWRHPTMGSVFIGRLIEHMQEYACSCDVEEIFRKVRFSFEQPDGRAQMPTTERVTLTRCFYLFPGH
As to the kind of experiment: Assay of selective inhibitory activity, caspase-1. To be noted: read-out: IC50 against caspase-1. The protocol:
(§1) To investigate the selectivity on caspase enzyme subtypes, the inhibitory effects of the compounds of this invention on several other members of the caspase family, caspase-1, 6, 7 and 8 were evaluated.
(§2) After 1 hr incubation at 37° C., the release of AFC (7-amino-4-trifluoromethyl-coumarin) was monitored in a fluorometric plate reader (Victor 1420). The excitation and emission wavelengths were 400 nm and 510 nm, respectively. Isotherms from three assays were calculated by computerized nonlinear regression analysis (GraphPad Prism Program, San Diego, Calif.) to yield IC50 values. Caspase-1, 6, 7 and 8 were purchased from BIOMOL Research Laboratories Inc. (Plymouth Meeting, Pa., USA).
(§3) Coumarin-based fluorogenic substrates for each enzyme were obtained from Sigma/RBI (St. Louis, Mo., USA). The compound used in the assay was 8-amino-4-(3-morpholine-4-yl-propylamino)-quinoline-3-carboxylic acid ethyl ester. The enzymatic activity of caspase-1, 6, 7 or 8 was determined by the same procedures as for the caspase-3 assay, except for enzyme or substrate (Table 2).

Another assay concerns the target T3, Caspase-6 (Homo sapiens, UniProt P55212).
T3 construct: purchased BIOMOL Research Laboratories Inc; host or cells: E. coli
T3 sequence (P55212 24-179 limits assumed): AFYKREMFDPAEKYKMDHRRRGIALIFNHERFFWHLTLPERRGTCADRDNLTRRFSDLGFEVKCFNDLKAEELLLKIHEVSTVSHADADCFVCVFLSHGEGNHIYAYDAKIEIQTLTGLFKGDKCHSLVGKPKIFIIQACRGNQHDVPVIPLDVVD
T3 sequence (P55212 194-293 limits assumed): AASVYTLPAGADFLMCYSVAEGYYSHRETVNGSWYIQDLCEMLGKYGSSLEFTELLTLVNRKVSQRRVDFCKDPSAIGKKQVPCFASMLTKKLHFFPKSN
As to the kind of experiment: Assay of selective inhibitory activity, caspase-6. To be noted: read-out: IC50 against caspase-6. The protocol:
as §1, §2, §3

The target of a further assay is T4, Caspase-7 (Homo sapiens, UniProt P55210).
T4 construct: purchased BIOMOL Research Laboratories Inc; host or cells: E. coli
T4 sequence (P55210 24-198 limits assumed): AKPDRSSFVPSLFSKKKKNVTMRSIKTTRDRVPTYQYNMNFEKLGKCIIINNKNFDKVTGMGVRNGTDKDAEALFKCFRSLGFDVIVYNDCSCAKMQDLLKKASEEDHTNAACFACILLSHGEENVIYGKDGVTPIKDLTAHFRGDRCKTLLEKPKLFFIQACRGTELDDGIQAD
T4 sequence (P55210 207-303 limits assumed): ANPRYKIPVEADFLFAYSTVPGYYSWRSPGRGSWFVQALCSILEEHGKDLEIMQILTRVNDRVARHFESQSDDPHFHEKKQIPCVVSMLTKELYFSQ
As to the kind of experiment: Assay of selective inhibitory activity, caspase-7. To be noted: read-out: IC50 against caspase-7. Here is the method:
as §1, §2, §3

The target in another assay is T5, Caspase-8 (Homo sapiens, UniProt Q14790).
T5 construct: purchased BIOMOL Research Laboratories Inc; host or cells: E. coli
T5 sequence (Q14790 217-374 limits assumed): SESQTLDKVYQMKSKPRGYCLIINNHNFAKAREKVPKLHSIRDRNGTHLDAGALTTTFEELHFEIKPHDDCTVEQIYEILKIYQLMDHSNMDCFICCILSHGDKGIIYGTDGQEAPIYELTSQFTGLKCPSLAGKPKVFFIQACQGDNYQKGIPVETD
T5 sequence (Q14790 385-479 limits assumed): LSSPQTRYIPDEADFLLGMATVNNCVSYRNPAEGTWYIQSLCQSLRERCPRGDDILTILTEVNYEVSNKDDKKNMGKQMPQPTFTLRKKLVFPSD
The experiment in a line: Assay of selective inhibitory activity, caspase-8. To be noted: read-out: IC50 against caspase-8. The protocol:
as §1, §2, §3

For `CCOC(=O)c1cnc2c(N)cccc2c1NCCCN1CCOCC1` [Example 22, 8-Amino-4-(3-morpholin-4-yl-propylamino)-quinoline-3-carboxylic acid ethyl ester], the 50% inhibitory concentration (IC50) (as a rule, the concentration needed to halve the response being measured) is 13.8 µM in assay [1] (caspase-3, Table 1, tested at 2, 20 or 200 uM, read-out: IC50); 5.6 µM in assay [1] (selectivity study, text b424, read-out: IC50 against caspase-3); at least 200 µM on Caspase-1; at least 200 µM at Caspase-6; 14.7 µM on Caspase-7; at least 200 µM at Caspase-8. Also, the inhibition (in general, the drop in the measured response relative to a control, in per cent) at 20 µM in assay [1] worked out at 92.3%. In addition, the “inhibitory activity against caspase-3 (in words)” value in assay [1] (compared to the reference compound) was “superior activity”.
As to `CCCOC(=O)c1cnc2c(N)cccc2c1NCc1ccccn1` [Example 60, 8-Amino-4-[(pyridine-2-ylmethyl)-amino]-quinoline-3-carboxylic acid propyl ester], the inhibition at 20 µM in assay [1] was determined as 76.8%.
Still for that read-out and setting: to `CC(C)OC(=O)c1cnc2c(N)cccc2c1NCc1ccccn1` [Example 61, 8-Amino-4-[(pyridin-2-ylmethyl)-amino]-quinoline-3-carboxylic acid isopropyl ester] belongs 81.4%.
